Experimental data: patent US11697646B2, “Triazole N-linked carbamoyl cyclohexyl acids as LPA antagonists” (BRISTOL-MYERS SQUIBB COMPANY, priority 2017, dated 2023)
Where a name gives a salt, the structure may show the parent alone. Read-outs that look alike come from different tables or passages of the source. One block for each compound: values may come before it.

How the values were obtained:
human LPA1 = biological target: T1, human LPA1 (Homo sapiens, UniProt Q92633); assay: LPA1 functional antagonist assay (calcium flux); assay type: cell-based; conditions: read-out: hLPA1 IC50
T1 construct: expressed in transfected cells; host or cells: Chinese hamster ovary (CHO) cells
Procedure: The effectiveness of compounds of the present invention as LPA1 inhibitors can be determined in an LPA1 functional antagonist assay as follows:
The cells were then equilibrated to room temperature for 30 minutes before the assay. […] IC50 values were determined by fitting data to a 4-parameter logistic equation (GraphPad Prism, San Diego Calif.).

plasma histamine = assay: LPA challenge with plasma histamine evaluation (acute in vivo histamine assay); conditions: 1 mg/kg dose
Procedure: LPA Challenge with Plasma Histamine Evaluation.
Compound is dosed orally p.o. 2 hours to CD-1 female mice prior to the LPA challenge. The mice are then dosed via tail vein (IV) with 0.15 mL of LPA in 0.1% BSA/PBS (2 μg/μL). Exactly 2 minutes following the LPA challenge, the mice are euthanized by decapitation and the trunk blood is collected. These samples are collectively centrifuged and individual 75 μL samples are frozen at −20° C. until the time of the histamine assay.
The plasma histamine analysis was run by standard EIA (Enzyme Immunoassay) methods. Plasma samples were thawed and diluted 1:30 in 0.1% BSA in PBS. The EIA protocol for histamine analysis as outlined by the manufacturer was followed (Histamine EIA, Oxford Biomedical Research, EA #31).
The LPA used in the assay is formulated as follows: LPA (1-oleoyl-2-hydroxy-sn-glycero-3-phosphate (sodium salt), 857130P, Avanti Polar Lipids) is prepared in 0.1% BSA/PBS for total concentration of 2 μg/μL, 13 mg of LPA is weighed and 6.5 mL 0.1% BSA added, vortexed and sonicated for −1 hour until a clear solution is achieved.

[1] = test system: pancreatic cancer cell lines; conditions: in response to LPA and peritoneal fluid (ascites) from pancreatic cancer patients; cited from earlier work
[2] = test system: highly peritoneal metastatic pancreatic cancer cell line; conditions: LPA-induced and ascites-induced; cited from earlier work
UUO mice = conditions: cited from earlier work
[3] = test system: mouse epithelial renal cell line, MCT; conditions: LPA treatment of MCT cells, co-treatment; cited from earlier work
[4] = test system: human foetal lung fibroblasts; conditions: induced by BAL obtained from IPF patients; cited from earlier work
nerve-injured mice = conditions: pretreatment; cited from earlier work
IPF patients = conditions: 26-week clinical trial in IPF patients; cited from earlier work
[5] = CHO cells overexpressing human LPA1, calcium flux induced by 10 nM LPA
[6] = human LPA1 functional antagonist assay

T1 sequence (Q92633 whole entry): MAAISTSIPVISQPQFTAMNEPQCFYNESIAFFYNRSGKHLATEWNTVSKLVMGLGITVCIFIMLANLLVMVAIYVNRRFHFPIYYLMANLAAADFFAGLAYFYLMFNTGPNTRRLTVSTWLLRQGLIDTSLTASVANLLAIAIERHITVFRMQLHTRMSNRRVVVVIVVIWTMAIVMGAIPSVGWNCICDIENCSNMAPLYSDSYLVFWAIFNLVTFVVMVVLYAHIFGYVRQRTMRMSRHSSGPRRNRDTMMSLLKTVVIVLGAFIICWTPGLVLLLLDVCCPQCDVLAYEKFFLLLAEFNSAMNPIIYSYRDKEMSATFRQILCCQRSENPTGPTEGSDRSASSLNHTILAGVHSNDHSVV

Compound: Cc1noc(-c2ccc(CSCCC(=O)O)cc2)c1NC(=O)OC(C)c1ccccc1Cl (stereo not drawn) [Ki16425]
- in vitro migration [1]: effectively blocked
- invasion activity [2]: blocked
- development of renal fibrosis (UUO mice): closely resembled the profile of LPA1 (−/−) mice
- induction of CTGF expression [3]: almost completely suppressed
- chemotaxis of human foetal lung fibroblasts [4]: blocked

Compound: C[C@@H](N)[C@H]1CC[C@H](C(=O)Nc2ccncc2)CC1 [Example Y-27632]
- allodynia and hyperalgesia (nerve-injured mice): completely abolished

Compound: CCCCCOC(=O)N(C)Cc1c(-c2ccc(O[C@H]3CCC[C@H](C(=O)O)C3)cn2)nnn1C [Example 15, (1S,3S)-3-((6-(1-methyl-5-((methyl((pentyloxy)carbonyl)amino)methyl)-1H-1,2,3-triazol-4-yl)pyridin-3-yl)oxy)cyclohexane-1-carboxylic acid]
- IC50 (human LPA1; [5]): 130 nM

Compound: Cn1nnc(-c2ccc(O[C@H]3CCC[C@H](C(=O)O)C3)cn2)c1NC(=O)OCC1CCC1 [Example 81]
- IC50 (human LPA1; [5]): 56 nM

Compound: Cc1nc(-c2nnn(C)c2NC(=O)N[C@H](C)C2CC2)ccc1O[C@H]1CCC[C@H](C(=O)O)C1 [Example 146, (1S,3S)-3-((6-(5-(3-((R)-1-cyclopropylethyl)ureido)-1-methyl-1H-1,2,3-triazol-4-yl)-2-methylpyridin-3-yl)oxy)cyclohexane-1-carboxylic acid]
- IC50 (human LPA1; [5]): 306 nM

Compound: Cc1nc(-c2nnn(C)c2CN(C)C(=O)OCC(C)C)ccc1O[C@H]1CCC[C@H](C(=O)O)C1 [Example 203, (1S,3S)-3-((6-(5-(((isobutoxy-carbonyl)(methyl)amino)methyl)-1-methyl-1H-1,2,3-triazol-4-yl)-2-methylpyridin-3-yl)oxy)cyclo-hexane-1-carboxylic acid]
- IC50 (human LPA1; [6]): 91 nM

Compound: Cc1nc(-c2nnn(C)c2CNC(=O)OCC(C)CC(F)(F)F)cnc1O[C@H]1CCC[C@H](C(=O)O)C1 (stereo partly drawn) [Example 155, (1S,3S)-3-((3-methyl-5-(1-methyl-5-((((4,4,4-trifluoro-2-methylbutoxy)carbonyl)amino)methyl)-1H-1,2,3-triazol-4-yl)pyrazin-2-yl)oxy)cyclohexane-1-carboxylic acid]
- IC50 (human LPA1; [6]): 85 nM

Compound: CC[C@@H](C)OC(=O)NCc1c(-c2ccc(O[C@H]3CCC[C@H](C(=O)O)C3)c(C)n2)nnn1C [Example 172, (1S,3S)-3-((6-(5-((((R)-sec-butoxycarbonyl)amino)methyl)-1-methyl-1H-1,2,3-triazol-4-yl)-2-methyl-pyridin-3-yl)oxy)cyclohexane-1-carboxylic acid]
- IC50 (human LPA1; [6]): 152 nM

Compound: Cc1noc(-c2ccc(-c3ccc(C4(C(=O)O)CC4)cc3)cc2)c1NC(=O)O[C@H](C)c1ccccc1 [BMS-986020]
- rate of FVC (forced vital capacity) decline (IPF patients): significantly reduce

Compound: Cc1nc(-c2nnn(C)c2NC(=O)OCc2ccccc2)ccc1O[C@H]1CCC[C@H](C(=O)O)C1 [Example 80, (1S,3S)-3-((6-(5-(((benzyloxy)carbonyl)amino)-1-methyl-1H-1,2,3-triazol-4-yl)-2-methylpyridin-3-yl)oxy)cyclohexane-1-carboxylic acid]
- IC50 (human LPA1; [5]): 37 nM

The next lines start with results.

- IC50 (human LPA1; [5]): 9 nM
Compound: Cc1nc(-c2nnn(C)c2CNC(=O)OCc2ccccc2)ccc1O[C@H]1CCC[C@H](C(=O)O)C1 [Example 34, (1S,3S)-3-((6-(5-((((benzyloxy)carbonyl)amino)methyl)-1-methyl-1H-1,2,3-triazol-4-yl)-2-methylpyridin-3-yl)oxy)cyclohexane-1-carboxylic acid]
- acute in vivo histamine assay in CD-1 mice: % histamine (plasma histamine): −96%

- IC50 (human LPA1; [5]): 44 nM
Compound: Cn1nnc(-c2ccc(O[C@H]3CCC[C@H](C(=O)O)C3)cn2)c1CNC(=O)OCC(C)(C)C [Example 26, (1S,3S)-3-((6-(1-methyl-5-((((neopentyloxy)carbonyl)amino)methyl)-1H-1,2,3-triazol-4-yl)pyridin-3-yl)oxy)cyclohexane-1-carboxylic acid]

- IC50 (human LPA1; [6]): 333 nM
Compound: Cc1nc(-c2nnn(C)c2CN(C)C(=O)OCC2CC2)ccc1O[C@H]1CCC[C@H](C(=O)O)C1 [Example 205, (1S,3S)-3-((6-(5-((((cyclopropylmethoxy)carbonyl)(methyl)amino)methyl)-1-methyl-1H-1,2,3-triazol-4-yl)-2-methyl-pyridin-3-yl)oxy)cyclohexane-1-carboxylic acid, TFA salt]

- IC50 (human LPA1; [5]): 60 nM
Compound: Cc1nc(-c2nnn(C)c2NC(=O)OCC2(C)CC2)ccc1O[C@H]1CCC[C@H](C(=O)O)C1 [Example 224, (1S,3S)-3-((2-methyl-6-(1-methyl-5-((((1-methylcyclopropyl)methoxy)carbonyl)amino)-1H-1,2,3-triazol-4-yl)pyridin-3-yl)oxy)cyclohexane-1-carboxylic acid]

- IC50 (human LPA1; [5]): 30 nM
Compound: COCc1nc(-c2nnn(C)c2CNC(=O)OCc2ccccc2)ccc1O[C@H]1CCC[C@H](C(=O)O)C1 [Example 102, (1S,3S)-3-((6-(5-((((benzyloxy)carbonyl)amino)methyl)-1-methyl-1H-1,2,3-triazol-4-yl)-2-(methoxy-methyl)pyridin-3-yl)oxy)cyclohexane-1-carboxylic acid]

- IC50 (human LPA1; [5]): 58 nM
Compound: CCCC1(COC(=O)NCc2c(-c3ccc(O[C@H]4CCC[C@H](C(=O)O)C4)c(C)n3)nnn2C)CCC1 [Example 54]
